{
  "source": "patent US7087766B2",
  "about": "“Reagents for the quantitation of active oxygen” (Daiichi Pure Chemicals Co., Ltd., priority 2000, dated 2006)",
  "key": {"[1]": {"experiment": "Reactivity with hydroxyl radical (Fenton system: hydrogen peroxide and ferrous perchlorate), fluorescence intensity", "conditions": "for changes in fluorescence intensity between before and after treatment, Hydroxyl radical: 10 μM probe, 100 mM sodium phosphate buffer pH 7.4, Iron(II) perchlorate (100 μM) and hydrogen peroxide (1 mM), 30 minutes, ex 490 nm/em 510 nm; for reactivity to hydroxyl radical (in words): condition a of Table 1", "protocol": "(§1) The excitation spectrum and the fluorescence spectrum of the 10 μM ss-3F solution were measured using a fluorophotometer F4500 (manufactured by Hitachi, Ltd.). Slit width was 2.5 nm for both the excitation spectrum and the fluorescence spectrum, and the photomultiplier voltage was 950 V. Measurement was carried out at the excitation wavelength of 490 nm and the fluorescence wavelength of 510 nm unless otherwise specified.\nFurther, to investigate the reaction between ss-3F and hydroxyl radical, hydrogen peroxide was added to the 10 μM ss-3F solution to a final concentration of 1 mM, and then the mixture was added with ferrous perchlorate to a final concentration of 100 μM for each addition (5 times in total) to measure changes in fluorescence intensity with time (Fenton system).\n(§2) The solutions described below were analyzed by HPLC. The absorbance at 460 nm was measured using XTerra™RP18 5 μm (4.6×250 mm) as a column and an aqueous solution of acetonitrile/0.1M NaHCO3=1/1 as an eluate with an elution rate of 1 ml/min. • (A) the 10 μM ss-3F solution • (B) a reaction solution prepared by adding EP-1 to the 10 μM ss-3F solution so as to give a final concentration of 5 mM and reacting at 37° C. for 8 hours • (C) a solution prepared by adding hydrogen peroxide to the 10 μM ss-3F solution so as to give a final concentration of 1 mM, and further adding ferrous perchlorate so as to give a final concentration of 500 μM, and then allowing to stand at room temperature for about 3 hours • (D) a 1 μM fluorescein solution\n(§3) The compounds of the present invention, ss-1F, and ss-3F were tested. DCFH (2′,7′-dichlorodihydrofluorescein) was used as a control which was produced by hydrolyzing DCFH-DA (2′,7′-dichlorodihydrofluorescein diacetate; Molecular Probes, D-399) as a commercially available agent for detecting reactive oxygen species. DCFH-DA was hydrolyzed in accordance with the method by Hempel et al. (Stephen L. Hempel et al., Free Radical Biology & Medicine, 27, 146–159, 1999) under an alkali condition to obtain DCFH. […] The 10 μM DCFH solution was used for the test immediately after the preparation. […] Each of ss-1F, ss-3F, and DCFH was treated under conditions “a” to “f” for 30 minutes (2 hours and 30 minutes only for “f”) and changes in fluorescence intensity between before and after treatment were measured. The fluorescence intensity was measured under the same conditions as those in Example 4."}, "[2]": {"experiment": "Autoxidation under a fluorescent lamp, fluorescence intensity", "type": "physicochemical", "conditions": "for changes in fluorescence intensity between before and after treatment, Autoxidation: 10 μM probe, 100 mM sodium phosphate buffer pH 7.4, just under a fluorescent lamp for 2 hours and 30 minutes; for autoxidation (in words): condition f of Table 1", "protocol": "as §1, §3"}, "[3]": {"experiment": "Reactivity with nitrogen monoxide (NOC13), fluorescence intensity", "conditions": "10 μM probe, 100 mM sodium phosphate buffer pH 7.4; NOC13 (100 μM); 30 minutes", "protocol": "as §1, §3"}, "[4]": {"experiment": "Reactivity with hydrogen peroxide, fluorescence intensity", "conditions": "for changes in fluorescence intensity between before and after treatment, Hydrogen peroxide: 10 μM probe, 100 mM sodium phosphate buffer pH 7.4, Hydrogen peroxide (1 mM), 30 minutes; for reaction with hydrogen peroxide per se (in words): result of Example 6", "protocol": "as §1, §3"}, "[5]": {"experiment": "Reactivity with superoxide (KO2), fluorescence intensity", "conditions": "10 μM probe, 100 mM sodium phosphate buffer pH 7.4; KO2 (100 μM); 30 minutes", "protocol": "as §1, §3"}, "[6]": {"experiment": "Reactivity with singlet oxygen (EP-1 naphthalene endoperoxide system), fluorescence intensity", "conditions": "for changes in fluorescence intensity between before and after treatment, Singlet oxygen: 10 μM probe, 100 mM sodium phosphate buffer pH 7.4, EP-1 (100 μM), 30 minutes", "protocol": "as §1\nSubsequently, in order to investigate the reaction between ss-3F and singlet oxygen, a solution of EP-1 (a singlet oxygen generation system, i.e., the naphthalene endoperoxide compound; Saito, I, .et al., J. Am. Chem. Soc., 107, pp. 6329–6334, 1985) in dimethylformamide (DMF) was added to the 10 μM ss-3F solution to final concentrations of 1 mM, 2 mM, and 5 mM, and changes in fluorescence intensity with time was measured (EP-1 system). The temperature of the solution at this time was at 37° C. The excitation spectrum and the fluorescence spectrum of the solution after the completion of the reaction were measured under the same conditions as described above. […] Also in FIG. 3, generation of fluorescence was observed, and it was verified that ss-3F generated fluorescence upon reaction with singlet oxygen.\nas §2\n(§4) A fluorescence spectrum of ss-3 obtained in Example 1 was measured under the same conditions as those in 1) of Example 4, except that the excitation wavelength was at 370 nm and the fluorescence wavelength was at 450 nm. The result obtained in the absence of EP-1 was shown in FIG. 7, and the result of fluorescence spectrum of the solution after the completion of the reaction with EP-1 was shown in FIG. 8.\nas §3"}, "[7]": {"experiment": "Excitation and fluorescence spectrum of the compound itself", "type": "physicochemical", "protocol": "as §1, §4"}, "horseradish peroxidase": {"tested_on": "horseradish peroxidase", "experiment": "Specific detection of peroxidase activity (HRP/H2O2), fluorescence spectrum", "type": "biochemical", "conditions": "10 μM probe, horseradish peroxidase 0.2 μM, hydrogen peroxide 0 to 5.0 μM, pH 7.4; fluorescence wavelength 515 nm", "protocol": "A 100 mM phosphate buffer (pH 7.4) of horseradish peroxidase was added to the resulting solution of ss-1F or ss-3F to a final concentration of 0.2 μM, and then hydrogen peroxide was added to final concentrations of 0, 0.01, 0.05, 0.1, 0.5, 1.0, 2.0, and 5.0 μM, and the fluorescence spectrum was immediately measured. The fluorescence spectrum was measured under the same conditions as those in 1) of Example 4, except that the fluorescence wavelength was at 515 nm."}},
  "note": "Entries after “also recorded” stand apart in the source; their conditions may differ.",
  "data": [
    {"smiles": "O=C(O)c1ccccc1C1c2cc(Cl)c(O)cc2Oc2cc(O)c(Cl)cc21", "note": "[DCFH, 2′,7′-dichlorodihydrofluorescein, reference compound]", "values": [
      {"measurement": "changes in fluorescence intensity between before and after treatment, Hydroxyl radical", "setting": "[1]", "result": "4.8 × 10^3"},
      {"measurement": "reactivity to hydroxyl radical (in words)", "setting": "[1]", "result": "successfully reacted with hydroxyl radical"},
      {"measurement": "changes in fluorescence intensity between before and after treatment, Autoxidation", "setting": "[2]", "result": "1.6 × 10^3"},
      {"measurement": "autoxidation (in words)", "setting": "[2]", "result": "high"},
      {"measurement": "changes in fluorescence intensity between before and after treatment, Nitrogen monoxide", "setting": "[3]", "result": "1.5 × 10^2"},
      {"measurement": "changes in fluorescence intensity between before and after treatment, Hydrogen peroxide", "setting": "[4]", "result": "1.9 × 10^2"},
      {"measurement": "changes in fluorescence intensity between before and after treatment, Superoxide", "setting": "[5]", "result": 67},
      {"measurement": "changes in fluorescence intensity between before and after treatment, Singlet oxygen", "setting": "[6]", "result": 26}
    ]},
    {"smiles": "Nc1ccc(Oc2ccc3c(-c4ccccc4C(=O)O)c4ccc(=O)cc-4oc3c2)cc1", "note": "[ss-3F]", "values": [
      {"measurement": "fluorescence of the compound per se", "setting": "[7]; 10 μM in 100 mM sodium phosphate buffer pH 7.4, excitation 490 nm, fluorescence 510 nm", "result": "emits no fluorescence"},
      {"measurement": "changes in fluorescence intensity between before and after treatment, Hydroxyl radical", "setting": "[1]", "result": "6.0 × 10^2"},
      {"measurement": "changes in fluorescence intensity with time on reaction with hydroxyl radical", "setting": "[1]; 10 μM solution, hydrogen peroxide 1 mM, ferrous perchlorate 100 μM per addition (5 times)", "result": "increase in fluorescence intensity was observed at each time of the addition of ferrous perchlorate"},
      {"measurement": "reactivity to hydroxyl radical (in words)", "setting": "[1]", "result": "high reactivity to hydroxyl radical"},
      {"measurement": "fluorescence intensity with HRP/H2O2", "setting": "horseradish peroxidase", "result": "increase in fluorescence intensity in a concentration-dependent manner"},
      {"measurement": "changes in fluorescence intensity between before and after treatment, Autoxidation", "setting": "[2]", "result": "<1.0"},
      {"measurement": "autoxidation (in words)", "setting": "[2]", "result": "completely free from autoxidation; also recorded: no autoxidation"},
      {"measurement": "changes in fluorescence intensity between before and after treatment, Nitrogen monoxide", "setting": "[3]", "result": "<1.0"},
      {"measurement": "changes in fluorescence intensity between before and after treatment, Hydrogen peroxide", "setting": "[4]", "result": "<1.0"},
      {"measurement": "reaction with hydrogen peroxide per se (in words)", "setting": "[4]", "result": "do not react with hydrogen peroxide"},
      {"measurement": "changes in fluorescence intensity between before and after treatment, Superoxide", "setting": "[5]", "result": 5.6},
      {"measurement": "changes in fluorescence intensity between before and after treatment, Singlet oxygen", "setting": "[6]", "result": 8.7},
      {"measurement": "changes in fluorescence intensity with time on reaction with singlet oxygen", "setting": "[6]; 10 μM solution, EP-1 1 mM, 2 mM, 5 mM, 37° C., ex 490 nm/em 510 nm", "result": "increase in fluorescence intensity was observed dependently on EP-1 concentrations as well as in time dependent manner"}
    ]},
    {"smiles": "Nc1ccc(Oc2ccc3ccc(=O)oc3c2)cc1", "note": "[ss-3]", "values": [
      {"measurement": "fluorescence of the compound itself", "setting": "[7]; absence of EP-1, excitation 370 nm, fluorescence 450 nm", "result": "substantially non-fluorescent"},
      {"measurement": "fluorescence after reaction with singlet oxygen", "setting": "[6]; after completion of the reaction with EP-1, excitation 370 nm, fluorescence 450 nm", "result": "emits fluorescence upon reaction with singlet oxygen"}
    ]},
    {"smiles": "O=C(O)c1ccccc1-c1c2ccc(=O)cc-2oc2cc(Oc3ccc(O)cc3)ccc12", "note": "[ss-1F]", "values": [
      {"measurement": "changes in fluorescence intensity between before and after treatment, Hydroxyl radical", "setting": "[1]", "result": "3.3 × 10^2"},
      {"measurement": "reactivity to hydroxyl radical (in words)", "setting": "[1]", "result": "high reactivity to hydroxyl radical"},
      {"measurement": "fluorescence intensity with HRP/H2O2", "setting": "horseradish peroxidase", "result": "increase in fluorescence intensity in a concentration-dependent manner"},
      {"measurement": "changes in fluorescence intensity between before and after treatment, Autoxidation", "setting": "[2]", "result": "<1.0"},
      {"measurement": "autoxidation (in words)", "setting": "[2]", "result": "completely free from autoxidation; also recorded: no autoxidation"},
      {"measurement": "changes in fluorescence intensity between before and after treatment, Nitrogen monoxide", "setting": "[3]", "result": 6.0},
      {"measurement": "changes in fluorescence intensity between before and after treatment, Hydrogen peroxide", "setting": "[4]", "result": 1.8},
      {"measurement": "reaction with hydrogen peroxide per se (in words)", "setting": "[4]", "result": "do not react with hydrogen peroxide"},
      {"measurement": "changes in fluorescence intensity between before and after treatment, Superoxide", "setting": "[5]", "result": 8.3},
      {"measurement": "changes in fluorescence intensity between before and after treatment, Singlet oxygen", "setting": "[6]", "result": 4.8}
    ]}
  ]
}
